Measurements reported in US20220054513A1, “COMBINATION COMPOSITIONS COMPRISING A BETA-LACTAMASE INHIBITOR” (VenatoRx Pharmaceuticals, Inc., priority 2018, published 2022).
Like-named read-outs stand apart in the source and are kept apart here.

Key:
[1] = test system: cefepime-resistant clinical isolates of Enterobacteriaceae and P. aeruginosa; experiment: neutropenic murine thigh infection model, human simulated regimens; assay type: in vivo, mice; details: human simulated regimen (HSR) of 2 g cefepime alone q8 h; at 24 h; 30 strains
Text: The 2 g:0.5 g dose of cefepime:Compound 1 which is planned for clinical efficacy studies is supported by neutropenic murine thigh infection model studies using 30 cefepime-resistant clinical isolates of Enterobacteriaceae and P. aeruginosa.

[2] = test system: multi-drug resistant Acinetobacter baumannii; experiment: broth microdilution MIC of sulbactam, ampicillin, cefepime and combinations +/- Compound 1, panel of 51 Acinetobacter isolates
[3] = test system: Acinetobacter baumannii-calcoaceticus species complex clinical isolates; experiment: MIC of triple combinations (Compound 1, sulbactam, meropenem or cefepime), 141 clinical isolates; assay type: cell-based; details: Acinetobacter, Cmpd 1 at 4 μg/mL in combinations, read-out: MIC
Text: For a more comprehensive assessment of the ability of test compounds to potentiate sulbactam in triple combinations with β-lactams additional MIC assays were utilized.

MIC50 [2]: 32 µg/mL
MIC90 [2]: 128 µg/mL
MIC ([2]; read-out: Minimum inhibitory concentration (MIC), strain 0273 (ADC-25, OXA-23, OXA-66)): 32 µg/mL
MIC ([2]; read-out: Minimum inhibitory concentration (MIC), strain 0274 (TEM-1D, ADC-25, OXA-66, OXA-72)): 32 µg/mL
MIC ([2]; read-out: Minimum inhibitory concentration (MIC), strain 0275 (TEM-1D, ADC-25, OXA-23, OXA-66)): 32 µg/mL
MIC ([2]; read-out: Minimum inhibitory concentration (MIC), strain 0276 (enzyme content ND)): 128 µg/mL
MIC ([2]; read-out: Minimum inhibitory concentration (MIC), strain 0277 (TEM-1B, OXA-65, OXA-24)): 128 µg/mL
MIC ([2]; read-out: Minimum inhibitory concentration (MIC), strain 0278 (TEM-1D, ADC-25, OXA-23, OXA-66)): 32 µg/mL
MIC ([2]; read-out: Minimum inhibitory concentration (MIC), strain 0279 (TEM-1D, ADC-25, OXA-23, OXA-66)): 32 µg/mL
MIC ([2]; read-out: Minimum inhibitory concentration (MIC), strain 0280 (TEM-1D, ADC-25, OXA-66)): 16 µg/mL
MIC ([2]; read-out: Minimum inhibitory concentration (MIC), strain 0281 (TEM-1D, ADC-25, OXA-82)): 16 µg/mL
MIC ([2]; read-out: Minimum inhibitory concentration (MIC), strain 0282 (TEM-1D, ADC-25, OXA-23, OXA-66)): 64 µg/mL
MIC ([2]; read-out: Minimum inhibitory concentration (MIC), strain 0283 (TEM-1D, ADC-25, OXA-23, OXA-66)): 16 µg/mL
MIC ([2]; read-out: Minimum inhibitory concentration (MIC), strain 0284 (TEM-1B, OXA-65, OXA-24)): 32 µg/mL
MIC ([2]; read-out: Minimum inhibitory concentration (MIC), strain 0285 (TEM-1B, OXA-65, OXA-24)): 32 µg/mL
MIC ([2]; read-out: Minimum inhibitory concentration (MIC), strain 0286 (ADC-25, OXA-66, OXA-24)): 32 µg/mL
MIC ([2]; read-out: Minimum inhibitory concentration (MIC), strain 0287 (ADC-25, OXA-66, OXA-72)): 32 µg/mL
MIC ([2]; read-out: Minimum inhibitory concentration (MIC), strain 0288 (ADC-25, OXA-23, OXA-66)): 128 µg/mL
MIC ([2]; read-out: Minimum inhibitory concentration (MIC), strain 0289 (ADC-25, OXA-66, OXA-72)): 32 µg/mL
MIC ([2]; read-out: Minimum inhibitory concentration (MIC), strain 0290 (TEM-1D, ADC-25, OXA-23, OXA-66)): 32 µg/mL
MIC ([2]; read-out: Minimum inhibitory concentration (MIC), strain 0291 (TEM-1D, ADC-25, OXA-23, OXA-66)): 8 µg/mL
MIC ([2]; read-out: Minimum inhibitory concentration (MIC), strain 0292 (OXA-66, OXA-72)): 32 µg/mL
MIC ([2]; read-out: Minimum inhibitory concentration (MIC), strain 0293 (OXA-66, OXA-72)): 16 µg/mL
MIC ([2]; read-out: Minimum inhibitory concentration (MIC), strain 0294 (TEM-1B, OXA-23, OXA-65)): 32 µg/mL
MIC ([2]; read-out: Minimum inhibitory concentration (MIC), strain 0295 (TEM-1D, ADC-25, OXA-23, OXA-66)): 32 µg/mL
MIC ([2]; read-out: Minimum inhibitory concentration (MIC), strain 0296 (ADC-25, OXA-23, OXA-223)): 64 µg/mL
MIC ([2]; read-out: Minimum inhibitory concentration (MIC), strain 0297 (ADC-25, OXA-23, OXA-66)): 32 µg/mL
MIC ([2]; read-out: Minimum inhibitory concentration (MIC), strain 0298 (TEM-1D, ADC-25, OXA-66, OXA-237)): 32 µg/mL
MIC ([2]; read-out: Minimum inhibitory concentration (MIC), strain 0299 (PER-7, OXA-23, OXA-203)): 128 µg/mL
MIC ([2]; read-out: Minimum inhibitory concentration (MIC), strain 0300 (ADC-25, OXA-66)): 16 µg/mL
MIC ([2]; read-out: Minimum inhibitory concentration (MIC), strain 0301 (ADC-25, OXA-66, OXA-72)): 128 µg/mL
MIC ([2]; read-out: Minimum inhibitory concentration (MIC), strain 0302 (OXA-23, OXA-82)): 16 µg/mL
MIC ([2]; read-out: Minimum inhibitory concentration (MIC), strain 0303 (ADC-25, OXA-23, OXA-66)): 16 µg/mL
MIC ([2]; read-out: Minimum inhibitory concentration (MIC), strain 0304 (ADC-25, OXA-66, OXA-72)): 32 µg/mL
MIC ([2]; read-out: Minimum inhibitory concentration (MIC), strain 0305 (TEM-1B, OXA-65, OXA-24)): 16 µg/mL
MIC ([2]; read-out: Minimum inhibitory concentration (MIC), strain 0306 (TEM-1B, OXA-65, OXA-24)): 128 µg/mL
MIC ([2]; read-out: Minimum inhibitory concentration (MIC), strain 0307 (ADC-25, OXA-66, OXA-237)): 32 µg/mL
MIC ([2]; read-out: Minimum inhibitory concentration (MIC), strain 0308 (TEM-1D, ADC-25, OXA-71)): 16 µg/mL
MIC ([2]; read-out: Minimum inhibitory concentration (MIC), strain 0309 (OXA-23, OXA-82)): 64 µg/mL
MIC ([2]; read-out: Minimum inhibitory concentration (MIC), strain 0310 (OXA-23, OXA-82)): 32 µg/mL
MIC ([2]; read-out: Minimum inhibitory concentration (MIC), strain 0311 (ADC-25, OXA-23, OXA-82)): 128 µg/mL
MIC ([2]; read-out: Minimum inhibitory concentration (MIC), strain 0312 (OXA-69)): 32 µg/mL
MIC ([2]; read-out: Minimum inhibitory concentration (MIC), strain 0313 (TEM-1D, OXA-23, OXA-69)): 64 µg/mL
MIC ([2]; read-out: Minimum inhibitory concentration (MIC), strain 157834 (enzyme content ND)): 16 µg/mL
MIC ([2]; read-out: Minimum inhibitory concentration (MIC), strain 157842 (enzyme content ND)): 4 µg/mL
MIC ([2]; read-out: Minimum inhibitory concentration (MIC), strain 157876 (enzyme content ND)): 8 µg/mL
MIC ([2]; read-out: Minimum inhibitory concentration (MIC), strain 157901 (enzyme content ND)): 16 µg/mL
MIC ([2]; read-out: Minimum inhibitory concentration (MIC), strain 161750 (enzyme content ND)): 128 µg/mL
MIC ([2]; read-out: Minimum inhibitory concentration (MIC), strain 161752 (enzyme content ND)): 16 µg/mL
MIC ([2]; read-out: Minimum inhibitory concentration (MIC), strain 161755 (enzyme content ND)): 8 µg/mL
MIC ([2]; read-out: Minimum inhibitory concentration (MIC), strain 161756 (enzyme content ND)): 8 µg/mL
MIC ([2]; read-out: Minimum inhibitory concentration (MIC), strain 161760 (enzyme content ND)): 32 µg/mL
MIC ([2]; read-out: Minimum inhibitory concentration (MIC), strain 161762 (enzyme content ND)): 8 µg/mL
MIC ([3]; strain 990089): 64 µg/mL
MIC ([3]; strain 993131): 64 µg/mL
MIC ([3]; strain 994180): 32 µg/mL
MIC ([3]; strain 996612): > 512 µg/mL
MIC ([3]; strain 996707): 64 µg/mL
MIC ([3]; strain 996869): 32 µg/mL
MIC ([3]; strain 997574): 16 µg/mL
MIC ([3]; strain 998532): 64 µg/mL
MIC ([3]; strain 998907): 8 µg/mL
MIC ([3]; strain 999306): 8 µg/mL
MIC ([3]; strain 1001611): 16 µg/mL
MIC ([3]; strain 1002208): 64 µg/mL
MIC ([3]; strain 1002247): > 512 µg/mL
MIC ([3]; strain 1002688): 64 µg/mL
MIC ([3]; strain 1002952): 64 µg/mL
MIC ([3]; strain 1003557): 64 µg/mL
MIC ([3]; strain 1003787): > 512 µg/mL
MIC ([3]; strain 1008510): 64 µg/mL
MIC ([3]; strain 1008730): 64 µg/mL
MIC ([3]; strain 1010245): 64 µg/mL
MIC ([3]; strain 1010331): > 512 µg/mL
MIC ([3]; strain 1010950): > 512 µg/mL
MIC ([3]; strain 1011959): 64 µg/mL
MIC ([3]; strain 1013022): 64 µg/mL
MIC ([3]; strain 1013035): 32 µg/mL
MIC ([3]; strain 1014143): 32 µg/mL
MIC ([3]; strain 1014646): 64 µg/mL
MIC ([3]; strain 1016836): 64 µg/mL
MIC ([3]; strain 1018109): 2 µg/mL
MIC ([3]; strain 1018801): > 512 µg/mL
MIC ([3]; strain 1023207): 32 µg/mL
MIC ([3]; strain 1024119): 32 µg/mL
MIC ([3]; strain 1024215): 32 µg/mL
MIC ([3]; strain 1027234): 64 µg/mL
MIC ([3]; strain 1027603): 64 µg/mL
MIC ([3]; strain 1027748): 32 µg/mL
MIC ([3]; strain 1028193): 32 µg/mL
MIC ([3]; strain 1029913): 32 µg/mL
MIC ([3]; strain 1030427): 32 µg/mL
MIC ([3]; strain 1030928): > 512 µg/mL
MIC ([3]; strain 1031191): 64 µg/mL
MIC ([3]; strain 1032669): 64 µg/mL
MIC ([3]; strain 1034880): 64 µg/mL
MIC ([3]; strain 1034912): 64 µg/mL
MIC ([3]; strain 1034925): 64 µg/mL
MIC ([3]; strain 1035788): 32 µg/mL
MIC ([3]; strain 1035794): 16 µg/mL
MIC ([3]; strain 1035825): 64 µg/mL
MIC ([3]; strain 1036045): 64 µg/mL
MIC ([3]; strain 1036068): 64 µg/mL
MIC ([3]; strain 1036768): > 512 µg/mL
MIC ([3]; strain 1036781): 32 µg/mL
MIC ([3]; strain 1036882): 16 µg/mL
MIC ([3]; strain 1036921): 32 µg/mL
MIC ([3]; strain 1037193): 32 µg/mL
MIC ([3]; strain 1037256): 32 µg/mL
MIC ([3]; strain 1037479): > 512 µg/mL
MIC ([3]; strain 1037714): 4 µg/mL
MIC ([3]; strain 1037732): 32 µg/mL
MIC ([3]; strain 1037738): 32 µg/mL
MIC ([3]; strain 1037747): > 512 µg/mL
MIC ([3]; strain 1039502): > 512 µg/mL
MIC ([3]; strain 1039515): 64 µg/mL
MIC ([3]; strain 1039518): 64 µg/mL
MIC ([3]; strain 1040900): 64 µg/mL
MIC ([3]; strain 1040917): > 512 µg/mL
MIC ([3]; strain 1042182): 32 µg/mL
Structure (SMILES): CO/N=C(\C(=O)N[C@@H]1C(=O)N2C(C(=O)[O-])=C(C[N+]3(C)CCCC3)CS[C@H]12)c1csc(N)n1 [FEP, cefepime]
growth on average compared to the T=0 control [1]: approximately 2.7 log10 CFU/thigh
